This note sets out measurements from patent US9645154B2, “Method for detecting cancer cell” (ARKRAY, Inc., priority 2010, dated 2017).

For experiment [1], the system named is Mixture of blood cells and PC3 cells. The experiment in a line: Aminolevulinic acid labeling combined with anti-CD45/anti-CD34 and anti-EpCAM antibodies. The following applies: ALA: 0.3 mM, FeC12: 0.3 mM, Ascorbic acid: 0.3 mM, 37° C., 60 min, threshold value 216. It counts as cell-based, human. An excerpt: Blood was collected from a human subject using a vacuum blood collection tube (with EDTA•2K). Blood cells were separated using HetaSep (STEMCELL Technologies) in accordance with the manufacturer's instructions.
In accordance with the conventional method, cultured human prostate cancer cell line (PC3, DS Pharma Biomedical Co., Ltd.) was harvested with trypsin (Invitrogen). The cell suspension of the harvested cancer cells was centrifuged, and the supernatant was removed. The cells were resuspended with Dulbecco's PBS (+) (Nissui Pharmaceutical Co., Ltd.) and centrifuged, and the supernatant was removed again.
The number of the cells in the suspension of the isolated blood cells was counted using a hemacytometer in accordance with the conventional method. Further, the number of the cells was also counted for the human prostate cancer cell line (PC3) in a similar manner, and the cells were added to the blood cell suspension to give a cell number of 1% of that of the blood cells. […]
The number of the cells was counted using a hemacytometer in accordance with the conventional method, and then 10^5 to 10^6 cells per sample (cell suspension) was aliquoted. […] The image was captured with a fluorescence microscope (Nikon Corp.). Protoporphyrin IX was detected with the fluorescence filter set 1, the PE-labeled anti-EpCAM antibody was detected with the fluorescence filter set 2, and the FITC-labeled anti-CD45 antibody and the FITC-labeled anti-CD34 antibody were detected with the fluorescence filter set 3.
Wavelengths for the fluorescence filter set 1: EX (excitation wavelength) 402±7.5 nm, DM 430 nm or longer, BA (fluorescence wavelength) 625±15 nm.
Wavelengths for the fluorescence filter set 2: EX (excitation wavelength) 535±25 nm, DM 575 nm or longer, BA (fluorescence wavelength) 590 nm or longer.
Wavelengths for the fluorescence filter set 3: EX (excitation wavelength) 475±15 nm, DM 505 nm or longer, BA (fluorescence wavelength) 525±10 nm. […]

Experiment [2] concerns human fibrosarcoma cell HT-1080. The experiment in a line: Aminolevulinic acid labeling with or without iron ion and reducing agent (positive rate). It counts as cell-based. The note with it: 0.3 mM, 37° C., 60 min. An excerpt: In accordance with the conventional method, human fibrosarcoma cell HT-1080 (DS Pharma Biomedical Co., Ltd.) and normal human dermal fibroblast cell NHDF (Lonza) in culture were harvested with trypsin (Invitrogen). The cell suspension of the harvested cancer cells was centrifuged, and the supernatant was removed. The cells were then resuspended with Dulbecco's PBS (+) (Nissui Pharmaceutical Co., Ltd.) and centrifuged, and the supernatant was removed again.
The number of the cells was counted using a hemacytometer in accordance with the conventional method, and then 10^5 to 10^6 cells per sample (cell suspension) was aliquoted. The sample was centrifuged to remove the supernatant. In the case an iron ion and a reducing agent were added, 0.3 mM of aminolevulinic acid (trade name: 5-AMINOLEVULINATE HYDROCHLORIDE, Cosmo Bio Co., Ltd.), 0.3 mM of FeCl2 and 0.3 mM of ascorbic acid dissolved in Dulbecco's PBS (+) were added thereto, and the cells were suspended well. In the case an iron ion and a reducing agent were not added, 0.3 mM of aminolevulinic acid dissolved in Dulbecco's PBS (+) was added singly, and the cells were suspended well. Each of the mixture was then allowed to react at 37° C. for 60 minutes. […]
The fluorescence filter set: EX (excitation wavelength) 402±7.5, DM 430 or longer, BA (fluorescence wavelength) 625±15.

For the compound `NCC(=O)CCC(=O)O` [aminolevulinic acid, 5-amino-4-oxopentanoic acid], the “False-positive rate (using α-CD45/34)” value in experiment [1] (FITC-α-CD45/CD34 antibody) is listed as 0.0%. Besides, the Positive rate in experiment [1] (PC3 at 1% of blood cells, hemolyzed) is on record as 85%. Also, the “False-positive rate (without using α-CD45/34)” value in experiment [1] was found to be 1.1%. Also, the “Positive rate (Fibroblast sarcoma cell (HT-1080))” value is on record as 97.3% in experiment [2] (Ascorbic acid 0, FeC12 0) and 79.3% in experiment [2] (Ascorbic acid 0.3 mM, FeC12 0.3 mM).
